The values that follow come from patent US11124523B2, “2,6-dioxaspiro [4,5] decane derivatives and preparation method therefor and pharmaceutical applications thereof” (SHANDONG LUYE PHARMACEUTICAL CO., LTD., priority 2017, dated 2021).

In series [1] the target is human μ-subtype opioid receptor (hMOR) (Homo sapiens (Human), UniProt P35372). In words: MOR cAMP agonist activity test. To be noted: for Emax: maximum effect of enkephalin DAMGO was 100%. The format is cell-based. How it is done:
Test 1: MOR cAMP Agonist Activity Test
1.1 Experimental Purpose: To test the cAMP agonist activity of the compounds of the present disclosure on the human μ-subtype opioid receptor (hMOR).
a. Compound samples were dissolved in DMSO to a storage concentration of 10 mM.
b. A series of diluted samples were formulated on a 384-well LDV plate. A total of 11 concentration points were obtained by 3.162-fold gradient dilution.
c. The series of diluted samples were transferred to an experimental plate (Corning-3824) by using an Echo machine, wherein 30 nL was transferred corresponding to each well.
The experiment was performed using a cAMP detection kit from Cisbio (Cisbio #62AM4PEJ).
a. Assay buffer and stimulation buffer (STB) required for the experiment were formulated.
Stimulation Buffer: formulated with the assay buffer, containing 5 μM NKH477 (CAS: 138605-00-2) and 200 μM IBMX (3-isobutyl-1-methylxanthine)
b. […] The number of cells in the well was 10,000 cells/well.
c. The experimental plate was placed in a 37° C. constant-temperature incubator for incubation. The incubation was performed for 40 minutes.
d. A cAMP standard concentration curve was prepared. The first concentration point was at 2848 nM, and a total of sixteen detection concentrations were obtained by 4-fold gradient dilution. There were three replicates for each concentration point.
e. The cAMP detection kit from Cisbio was provided therein with a d2-labeled cAMP reagent (d2 reagent) and an Eu-labeled cAMP antibody reagent (Crypate reagent). The above two reagents were formulated according to the kit instructions, and then added to the sample experimental plate and to the cAMP standard concentration experimental plate, respectively. It was necessary to add 5 μL of the d2 reagent and then 5 μL of the Cryptate reagent to each well.
f. After the experimental plates were left at room temperature for 60 minutes, the experimental plates were read on the Envision.

The target in a further series is CYP2C19 (Homo sapiens (Human), UniProt P33261). In words: Inhibition of cytochrome P450 isoenzymes, CYP2C19. The format is in vitro ADME. As to conditions: >50 μM: inhibitory effect less than 50% at 50 μM; read-out: CYP 2C19 IC50. How it is done:
4.1 Experimental Purpose: To test the inhibitory effects of the compounds of the present disclosure on different isoforms of human cytochrome P450 isoenzymes
1) The activities of CYP1A2, 2C9, 2C19, 2D6, and 3A4 were measured using a standard substrate method. In each reaction, the enzyme activities were measured in the presence and absence of the substance to be tested, wherein a single sample was measured at a total of eight test concentrations. A 5-in-1 mixed inhibitor was used.
2) An incubation matrix comprising microsomes, a substrate, and an inhibitor or the compound to be tested was pre-incubated at 37° C. for 5 minutes, and then NADPH was added to start the reaction.
3) After the incubation, acetonitrile with an internal standard was added to stop the reaction.
4) Metabolites generated by the substrates were measured by using the LC-MS/MS method, and the peak area ratio of each metabolite to the internal standard was evaluated and the inhibition rate and IC50 were calculated.

Series [2] is described as follows: Pharmacokinetics of the compounds in rats. Format: in vivo, rat. To be noted: for Apparent Clearance Cl: male SD rats, single IV, mg/Kg: Comparative Compound 1 1.80, (+)-5 2.40, (+)-16 1.76, HCl salt of (+)-23 1.71; for Kp at […] / Vd / AUC(0-inf) / half-life / C0: male, SD, rat, iv; for Kp at […]: brain/plasma, read-out: Brain/Plasm Ratio B/P ratio; for Vd / AUC(0-inf) / half-life / C0: plasma; for Vd: read-out: Apparent Distribution Volume Vd; for AUC(0-inf): read-out: Area under the Curve AUC0-inf; for half-life: read-out: Hal-life T1/2 (converted); for C0: read-out: Initial Concentration C0. How it is done:
6.1 Experimental Purpose: To measure, using a LC/MS/MS method, the medicament concentrations of the compound in plasma and specific tissues at different time points after the compound was administered by a single intravenous injection (IV) to 7-9-week-old male SD rats used as test animals, to study on the pharmacokinetic behavior of the compound of the present disclosure in rats, and to evaluate the pharmacokinetic characteristics thereof. 6.2 Compound Formulation
Each of them was formulated at a concentration of 1 mg/mL and was used for IV (intravenous injection) administration.
The actual weights of the rats were weighed on the day of administration and volumes to be administered were calculated. The above formulated solutions to be administered were administered by injection into caudal veins of rats.
About 0.2 mL of whole blood samples were collected by means of jugular vein puncture at the time set in the experimental protocol, and the actual blood collection time was recorded in the experimental records. All the blood samples were added to labeled plastic centrifuge tubes to which K2-EDTA anticoagulant was added in advance. After the blood samples were collected, they were centrifuged at 3,000 g for 10 minutes at 4° C. to prepare the supernatant plasma, and the plasma was stored at −20° C. or a lower temperature for LC-MS/MS analysis.
The concentrations of the compounds in rat plasma were measured by using high-performance liquid chromatography-tandem mass spectrometry (LC-MS/MS). The retention durations of the compounds and internal standard, chromatogram acquisition, and integration of chromatograms were processed using the software Analyst (Applied Biosystems), and data statistics were processed using the software Watson LIMS (Thermo Fisher Scientific) or Analyst (Applied Biosystems). The plasma concentration was processed using a non-compartmental model of WinNonlin™ Version 6.3 (Pharsight, Mountain View, Calif.) which was a pharmacokinetic software, and the pharmacokinetic parameters were calculated using a linear logarithmic trapezoidal method.

Structures can show the parent of a compound that is named as a salt.

For orientation: EC50 means the concentration at which the effect is half-maximal. A word on the Emax: it is the maximal effect, on the per cent scale that the assay sets. By IC50 is commonly meant the midpoint of a concentration-inhibition curve.

CYP2C19, sequence (P33261 whole entry, canonical isoform): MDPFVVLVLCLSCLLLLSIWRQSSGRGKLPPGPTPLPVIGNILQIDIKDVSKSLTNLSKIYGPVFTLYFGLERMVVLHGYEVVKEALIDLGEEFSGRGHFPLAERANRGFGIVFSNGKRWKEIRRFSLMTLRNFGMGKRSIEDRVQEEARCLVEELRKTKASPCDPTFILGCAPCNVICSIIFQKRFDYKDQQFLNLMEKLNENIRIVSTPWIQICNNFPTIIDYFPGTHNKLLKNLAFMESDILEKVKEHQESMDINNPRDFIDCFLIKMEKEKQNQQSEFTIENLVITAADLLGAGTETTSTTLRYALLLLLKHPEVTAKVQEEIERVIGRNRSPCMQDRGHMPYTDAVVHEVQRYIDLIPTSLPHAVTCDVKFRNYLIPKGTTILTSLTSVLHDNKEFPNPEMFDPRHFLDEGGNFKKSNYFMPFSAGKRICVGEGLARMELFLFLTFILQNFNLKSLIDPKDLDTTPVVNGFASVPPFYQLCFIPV

In series [1], `Fc1ccc([C@]2(CCNCc3cccc(F)c3)CCO[C@]3(CCOC3)C2)nc1` [Hydrochloride Salt of (+)-23] had a half-maximal effective concentration (EC50) of 0.001 µM and an Emax of 84.5%. Also, the IC50 at CYP2C19 is more than 50 µM. Further, in series [2], the “Apparent Clearance Cl” value came to 113 mL/min/kg, the Kp at […] was found to be 2.2, the Vd is 5 L/kg and the AUC(0-inf) was found to be 0.763 µM·h. In series [2], the half-life is 42 min and the C0 was 1550 nM.

As for `COc1ccsc1CNCC[C@@]1(c2ccccn2)CCOC2(CCCC2)C1` [compound 1, Oliceridine, reference compound], the maximal response (Emax) in series [1] came out at 82.7%. Besides, the IC50 on CYP2C19 was more than 50 µM. Besides, in series [2], the “Apparent Clearance Cl” value worked out at 74.4 mL/min/kg, the Vd stood at 4.3 L/kg, the AUC(0-inf) amounted to 1.15 µM·h and the half-life is 48 min. In addition, the C0 in series [2] came to 1900 nM.

`Fc1ccc([C@]2(CCNCc3cccc(Cl)c3)CCO[C@]3(CCOC3)C2)nc1` [(+)-16]: in series [1], a half-maximal response (EC50) required 0.0005 µM and the maximal effect (Emax) was determined as 91.7%. Moreover, the half-inhibitory concentration (IC50) on CYP2C19 turned out to be 33.7 µM. In series [2], the “Apparent Clearance Cl” value was 114 mL/min/kg, the Kp at […] stood at 4.61, the Vd worked out at 6.3 L/kg and the AUC(0-inf) was determined as 0.723 µM·h. In series [2], the half-life was 54 min and the C0 stood at 979 nM.

In the case of `c1ccc([C@]2(CCNCc3scc4c3CCC4)CCO[C@]3(CCOC3)C2)nc1` [(+)-2], the Emax in series [1] came to 96%. Further, the IC50 at CYP2C19 is more than 50 µM.

`Cc1cccc(CNCC[C@@]2(c3ccc(F)cn3)CCO[C@]3(CCOC3)C2)c1` [Hydrochloride Salt of (+)-22] came in with a maximal effect (Emax) in series [1] of 93.3%. For the same molecule, the IC50 at CYP2C19 was more than 50 µM.
